Holding throughout (format): functional
Assay [1] deals with PC-3. Put plainly: Antitumor activity against human PC-3M-1E8 cell line by MTT assay. (In general: Tetrazolium assays rely on reduction of a dye to a coloured formazan, in cell work by metabolically active cells.)
Assay [2] deals with Bel-7402. In words: Antitumor activity against human Bel7402 cell line by MTT assay.
The subject of assay [3] is HeLa. Put plainly: Antitumor activity against human HeLa cell line by MTT assay.
Assay [4] has as its system PC-3. Put plainly: Antitumor activity against human PC-3M-1E8 cell line by SRB assay. Background: The SRB assay estimates cell density from bound dye.
For the next assay, the system named is MDA-MB-435. Put plainly: Antitumor activity against human MDA-MB-435 cell line by SRB assay.
Assay [5] concerns HeLa. Put plainly: Antitumor activity against human HeLa cell line by SRB assay.
The subject of a further assay is HL-60. Put plainly: Antitumor activity against human HL60 cell line by SRB assay.
Another assay has as its system BGC-823. In words: Antitumor activity against human BGC823 cell line by SRB assay.
Assay [6] deals with Bel-7402. Put plainly: Antitumor activity against human Bel7402 cell line by SRB assay.

Broadly, the Inhibition is how much of the control response was suppressed. A high value points to strong suppression.

Take `COc1cccc2c1C(=O)c1c(O)c3c(c(O)c1C2=O)C[C@@](O)(C(=O)CO)C[C@@H]3O[C@H]1C[C@H](N)[C@H](O)[C@H](C)O1` [DOXORUBICIN]: the figures for the Inhibition with PC-3 [1], with Bel-7402 [2] and in the assay with HeLa [3] were 91.61%, 51.26% and 76.96%, respectively.

As for `C=C[C@@](C)(CC/C=C(\CO)C(=O)O[C@H]1C[C@]2(C(=O)O[C@@H]3O[C@H](CO)[C@@H](O)[C@H](O)[C@H]3O[C@@H]3O[C@@H](C)[C@H](O[C@@H]4O[C@@H](CO)[C@H](O)[C@H]4O)[C@@H](O[C@@H]4O[C@H](CO)[C@@H](O)[C@H](O)[C@H]4O)[C@H]3O)[C@H](O)C[C@]3(C)C(=CC[C@@H]4[C@@]5(C)CC[C@H](O[C@@H]6O[C@H](CO[C@@H]7O[C@H](C)[C@H](O)[C@H](O)[C@H]7O[C@@H]7OC[C@@H](O)[C@H](O)[C@H]7O)[C@@H](O)[C@H](O)[C@H]6NC(C)=O)C(C)(C)[C@@H]5CC[C@]43C)[C@@H]2CC1(C)C)O[C@@H]1O[C@H](C)[C@@H](O)[C@H](O)[C@H]1O` [JULIBROSIDE J29], the Inhibition in the assay on PC-3 [4] stood at 85.37%; in the assay with MDA-MB-435 it was 84.47%; with HeLa [5], 94.9%; in the assay on HL-60 it was 25.35%; with BGC-823, 52.9%; in the assay with Bel-7402 [6], 67.14%. Further, the results for the Inhibition in the assay with PC-3 [1], in the assay with Bel-7402 [2] and in the assay on HeLa [3] were 81.4%, 50.37% and 87.75%, respectively.

With `C=CC(C)(CC/C=C(/CO)C(=O)O[C@H]1CC2(C(=O)O[C@@H]3O[C@H](CO)[C@@H](O)[C@H](O)[C@@H]3O[C@H]3O[C@H](C)[C@@H](O[C@H]4O[C@H](CO)[C@@H](O)[C@@H]4O)[C@H](O[C@H]4O[C@@H](CO)[C@H](O)[C@@H](O)[C@@H]4O)[C@@H]3O)C(CC1(C)C)C1=CCC3C4(C)CC[C@H](O[C@@H]5O[C@H](CO[C@H]6O[C@@H](C)[C@@H](O)[C@@H](O)[C@@H]6O[C@H]6OC[C@H](O)[C@@H](O)[C@@H]6O)[C@@H](O)[C@H](O)[C@H]5NC(C)=O)C(C)(C)C4CCC3(C)[C@]1(C)C[C@H]2O)O[C@H]1OC[C@H](O)[C@@H](O)[C@@H]1O` (stereo not given in full) [JULIBROSIDE J30], the Inhibition with PC-3 [4] turned out to be 84.98%; in the assay on MDA-MB-435, 75.68%; in the assay on HeLa [5], 91.65%; in the assay on HL-60, 25.59%; in the assay on BGC-823, 46.66%; in the assay on Bel-7402 [6], 57.49%. Also, the figures for the Inhibition with PC-3 [1], in the assay with Bel-7402 [2] and in the assay on HeLa [3] were 75.96%, 61.87% and 92.19%, respectively.

Regarding `C=CC(C)(CC/C=C(/CO)C(=O)O[C@H]1CC2(C(=O)O[C@@H]3O[C@H](CO)[C@@H](O)[C@H](O)[C@@H]3O[C@H]3O[C@H](C)[C@@H](O[C@H]4O[C@H](CO)[C@@H](O)[C@@H]4O)[C@H](O[C@H]4O[C@@H](CO)[C@H](O)[C@@H](O)[C@@H]4O)[C@@H]3O)C(CC1(C)C)C1=CCC3C4(C)CC[C@H](O[C@@H]5O[C@H](CO[C@H]6O[C@@H](C)[C@@H](O)[C@@H](O)[C@@H]6O[C@H]6OC[C@H](O)[C@@H](O)[C@@H]6O)[C@@H](O)[C@H](O)[C@H]5OC5O[C@H](CO)[C@@H](O)[C@H](O)[C@H]5O)C(C)(C)C4CCC3(C)[C@]1(C)C[C@H]2O)O[C@H]1O[C@@H](C)[C@H](O)[C@@H](O)[C@@H]1O` (stereo not given in full) [JULIBROSIDE J31], the Inhibition came to 80.85% with PC-3 [4]; 80.41% with MDA-MB-435; 83.48% in the assay with HeLa [5]; 39.33% with HL-60; 15.16% in the assay with BGC-823; 46.61% in the assay on Bel-7402 [6]. Also, the values for the Inhibition in the assay with PC-3 [1], with Bel-7402 [2] and with HeLa [3] were 94.71%, 44.34% and 64.33%, respectively.

For the origin of these results see ChEMBL document CHEMBL1147013, “Three anti-tumor saponins from Albizia julibrissin” (2006).
